Experiments:
[1] = system: human primary hepatocytes; assay: MCP1/CCL2 secretion in primary human hepatocytes exposed to free fatty acids + TNFα (ELISA); assay type: cell-based; settings: primary human hepatocytes from two healthy donors, 24 h
Description: Hepatocyte lipotoxicity appears to be a central driver of hepatic cellular injury via oxidative stress and endoplasmic reticulum (ER) stress. The ability of amino acids to influence steatosis (lipid accumulation) and inflammation in hepatocytes was assessed using human primary hepatocytes (Lonza, TRL).
Primary hepatocytes lot nos. from two healthy human donors were seeded on day 0 at density of 6e04 cells in 96 well optical microplates (Thermofisher) in hepatocyte plating media (William's E medium (Gibco) supplemented with 10% heat-inactivated FBS (Atlanta Bio), 2 mM Glutamax (Gibco), 1×ITS plus (R&D systems), and 0.2% Primocin (InVivoGen) and incubated for 6 hours at 37° C., 5% CO2. After 6 hours, cells were washed twice with 150 ul William's E medium and incubated overnight at 37° C., 5% CO2 with serum-free hepatocytes culture media (Hepatocytes defined medium (Corning)) supplemented with 5 ug human recombinant EGF (Corning), 2 mM Glutamax (Gibco), and 1× Penicillin/Streptomycin. On day 1, cells were washed twice with 150 μL per well William's E medium (Gibco) and incubated for 24h in the hepatocyte culture media in the same conditions described above.
On day 2, cells were washed twice with 150 ul DPBS 1× (Gibco) and maintained in amino acid-free WEM (US Biologicals) containing a defined custom amino acid concentration based on the mean physiological concentrations in blood. The values are published in the Human Metabolome Database (Wishart D S, Tzur D, Knox C, et al., HMDB: the Human Metabolome Database. Nucleic Acids Res. 2007 January; 35(Database issue):D521-6. 17202168; which is hereby incorporated by reference in its entirety). This custom media is supplemented with 11 mM Glucose, 0.272 mM Sodium Pyruvate, and a dose curve of defined amino acid compositions (i.e., vehicle, LIVRQ+N-acetylcysteine, LIVRQ, RQ+N-acetylcysteine, N-acetylcysteine alone, LIV, or individually with L-Leucine, L-Isoleucine, L-Valine, L-Arginine, L-Glutamine, and L-Cysteine) at various ranges of concentrations. Cells were maintained in this defined media for 24 hours at 37° C., 5% CO2.
After pre-treatment, cells were exposed to free fatty acids (FFA) at 250 uM with a ratio of 2:1 (Oleate:Palmitate) supplemented with TNF-α (Thermofisher) at 1 ng/ml or vehicle. Cells were incubated with the FFAs mixture and the different amino acids combinations for 24 hours at 37° C., 5% CO2. After 24 hours incubation, media was removed for cytokine analysis and replaced by fresh media containing the same stimulus conditions and amino acid concentrations. Cells were incubated for an additional 48 hours for a total of 72 hours of FFA and TNFα stimulation.
Human CCL2 (MCP-1) was measured by ELISA (Human […] DuoSet ELISA, R&D Systems) at 1/5 or 1/10 dilution in 1× Reagent Diluent (Reagent Ancillary Kit 2, R&D Systems). Data were normalized to the specific per well cell density determined by nuclei count stained by Hoechst 3342 (Life technologies) in the fluorescence microscopy described below.

[2] = system: Primary human hepatic stellate cells; assay: TNFα-induced MCP-1 secretion in primary human hepatic stellate cells (ELISA); assay type: cell-based; settings: for MCP-1 chemokine secretion, in words: primary human hepatic stellate cells from two donors, 3 ng/mL TNFα, 12 h
Description: Primary human hepatic stellate cells were obtained from Samsara Sciences based on the following criteria for selecting donors: adult age (between 18 and 50 years), normal BMI (>18.5 and <25), and absence of confounding liver disease. Primary human hepatic stellate cells grown in Complete HSC Medium to ˜80% confluence in T75 or T150 flasks below passage 10 were seeded into sterile, collagen I coated, 96-well optical plastic microplates (ThermoScientific, 152036) at 4000 cells per well ([…]) and incubated for 6 hours at 37° C., 5% CO2 in a humidified incubator.
After 6 hours, plates were removed from the incubator and the medium gently pipetted off and washed once with 150 μL per well DPBS. The DPBS was removed and the pretreatment medium (±single amino acid dropout, 1×HMDB DMEM+3% dialyzed FBS+0.2% Primocin, ±supplemental amino acid dose; see experiment for medium composition) was applied to the cells at 150 μL per well. Plates were returned to the incubator overnight, ˜14-15 hours.
After overnight pretreatment, the medium was removed from the cells, and the same pretreatment medium, now supplemented with 3 ng/mL TNFα is applied. Each plate contained 3 ng/mL TNFα in 1× human plasma amino acid (HMDB or PAA) concentration medium, 0 ng/mL in 1×HMDB, and 3 ng/mL TNFα+50 nM Bengamide in 1×HMDB to serve as controls. Plates were incubated for 12 hours at 37° C., 5% CO2.
After 12 hour stimulus with TNFα, supernatant was removed and frozen at −80° C. in two separate aliquots. Plates were washed gently once with DPBS and 100 μL per well of 1×HMDB DMEM+3% dialyzed FBS+0.2% Primocin+10% CCK-8 viability reagent (Dojindo). Plates were incubated for 1 hour at 37° C., 5% CO2.
After 1 hour of incubation, viability was measured on the Synergy plate reader (Absorbance at 977 (test), 900 (reference), and 450 (CCK8) nm). Immediately, the medium was removed and the plates were fixed with 70 μL per well 4% paraformaldehyde in PBS at room temperature for 20 minutes, followed by two 150 μL PBS washes, and stored with 100 μL per well PBS at 4° C. until immunofluorescence staining.
Human CCL2/MCP1 and Human IL-6 were measured by ELISA (Human […] DuoSet ELISA, R&D Systems; Human IL-6 DuoSet ELISA, R&D Systems) at 1/5 and 1/20 dilution in 1× Reagent Diluent (Reagent Ancillary Kit 2, R&D Systems). Data were normalized to the specific per well cell density determined by Hoechst stained nuclei count.

CC(=O)N[C@@H](CS)C(=O)O [N-acetylcysteine]
MCP1/CCL2 secretion, in words [1]: significantly decrease
Fold Change MCP1 Secretion Normalized Per Cell, Mean ([2]; donor 4, 1000 μM): 0.6437
Fold Change MCP1 Secretion Normalized Per Cell, Mean ([2]; donor 4, 2500 μM): 0.8033
Fold Change MCP1 Secretion Normalized Per Cell, Mean ([2]; donor 4, 5000 μM): 0.6728
Fold Change MCP1 Secretion Normalized Per Cell, Mean ([2]; donor 4, 10000 μM): 0.5011
Fold Change MCP1 Secretion Normalized Per Cell, Mean ([2]; donor 4, Conc. 5 X): 0.6437
Fold Change MCP1 Secretion Normalized Per Cell, Mean ([2]; donor 4, Conc. 10 X): 0.8033
Fold Change MCP1 Secretion Normalized Per Cell, Mean ([2]; donor 4, Conc. 20 X): 0.6728
Fold Change MCP1 Secretion Normalized Per Cell, Mean ([2]; donor 4, Conc. 40 X): 0.5011
MCP-1 chemokine secretion, in words [2]: significantly reduced MCP-1 secretion in both donors

CC(C)[C@H](N)C(=O)O [Valine, L-Valine]
MCP1/CCL2 secretion, in words [1]: did not have an effect
Fold Change MCP1 Secretion Normalized Per Cell, Mean ([2]; donor 3, 4684 μM): 1.0630
Fold Change MCP1 Secretion Normalized Per Cell, Mean ([2]; donor 3, 11710 μM): 1.0204
Fold Change MCP1 Secretion Normalized Per Cell, Mean ([2]; donor 3, 23420 μM): 1.2651
Fold Change MCP1 Secretion Normalized Per Cell, Mean ([2]; donor 4, 4684 μM): 1.0942
Fold Change MCP1 Secretion Normalized Per Cell, Mean ([2]; donor 4, 11710 μM): 1.1544
Fold Change MCP1 Secretion Normalized Per Cell, Mean ([2]; donor 4, 23420 μM): 1.1525
MCP-1 chemokine secretion, in words [2]: no significant impact

CC(C)C[C@H](N)C(=O)O [Leucine, L-Leucine]
MCP1/CCL2 secretion, in words [1]: did not have an effect
Fold Change MCP1 Secretion Normalized Per Cell, Mean ([2]; donor 3, 3054 μM): 1.1479
Fold Change MCP1 Secretion Normalized Per Cell, Mean ([2]; donor 3, 7635 μM): 1.3054
Fold Change MCP1 Secretion Normalized Per Cell, Mean ([2]; donor 3, 15270 μM): 1.1808
Fold Change MCP1 Secretion Normalized Per Cell, Mean ([2]; donor 4, 3054 μM): 1.5342
Fold Change MCP1 Secretion Normalized Per Cell, Mean ([2]; donor 4, 7635 μM): 1.7129
Fold Change MCP1 Secretion Normalized Per Cell, Mean ([2]; donor 4, 15270 μM): 1.5745
MCP-1 chemokine secretion, in words [2]: no significant impact

N=C(N)NCCC[C@H](N)C(=O)O [Arginine, L-Arginine]
MCP1/CCL2 secretion, in words [1]: increased
MCP-1 chemokine secretion, in words [2]: no significant impact

NC(=O)CC[C@H](N)C(=O)O [Glutamine, L-Glutamine]
MCP1/CCL2 secretion, in words [1]: significantly decrease
Fold Change MCP1 Secretion Normalized Per Cell, Mean ([2]; donor 3, 749 μM): 0.7048
Fold Change MCP1 Secretion Normalized Per Cell, Mean ([2]; donor 3, 3747 μM): 0.6036
Fold Change MCP1 Secretion Normalized Per Cell, Mean ([2]; donor 3, 11242 μM): 0.6106
Fold Change MCP1 Secretion Normalized Per Cell, Mean ([2]; donor 3, 22484 μM): 0.6212
Fold Change MCP1 Secretion Normalized Per Cell, Mean ([2]; donor 4, 749 μM): 0.7782
Fold Change MCP1 Secretion Normalized Per Cell, Mean ([2]; donor 4, 3747 μM): 0.6639
Fold Change MCP1 Secretion Normalized Per Cell, Mean ([2]; donor 4, 11242 μM): 0.7129
Fold Change MCP1 Secretion Normalized Per Cell, Mean ([2]; donor 4, 22484 μM): 0.7039
MCP-1 chemokine secretion, in words [2]: reduced MCP1 secretion in both donors but was only statistically significant in one of two donors

CC[C@H](C)[C@H](N)C(=O)O [Isoleucine, L-Isoleucine]
MCP1/CCL2 secretion, in words [1]: did not have an effect
Fold Change MCP1 Secretion Normalized Per Cell, Mean ([2]; donor 3, 1328 μM): 1.5550
Fold Change MCP1 Secretion Normalized Per Cell, Mean ([2]; donor 3, 3320 μM): 1.2169
Fold Change MCP1 Secretion Normalized Per Cell, Mean ([2]; donor 3, 6639 μM): 1.2084
Fold Change MCP1 Secretion Normalized Per Cell, Mean ([2]; donor 4, 1328 μM): 1.3338
Fold Change MCP1 Secretion Normalized Per Cell, Mean ([2]; donor 4, 3320 μM): 0.8830
Fold Change MCP1 Secretion Normalized Per Cell, Mean ([2]; donor 4, 6639 μM): 0.9103
